# Source: patent US20210393539A1, “FERRITIN NANOPARTICLES COMPRISING A CHEMOTHERAPEUTIC AGENT” (INTHENA S.R.L., priority 2018, published 2021)
# Tests used:
# patient-derived PBMC = tested on: patient-derived PBMC
# From the text: FIG. 1: DOX effects on proliferation potential of PBMC from patients under neoadjuvant chemotherapy.
# A. Flow cytometry of DOX internalization profile in PBMC isolated from a representative patient before and after DOX parenteral infusion.
# B. Quantification of Mean Fluorescence Intensity (MFI) in PBMC isolated from patients. The profiles represent the values of DOX fluorescence in each patient before and after chemotherapy. The histogram reports the mean DOX fluorescence value between all the samples analyzed.
# C. Representative image of proliferation analysis of PBMC isolated from BC patients before and after 1 cycle of neoadjuvant chemotherapy with DOX using CFSE assay.
# D. Quantification of proliferative index at different days of culture after Concanavalin A stimulation (ConA). The proliferation index is the ratio between proliferating cells and progenitor cells. The absence of proliferation is represented by a proliferative index of 1.
# FIG. 2: Characterization of lymphocytes subpopulations that internalize DOX. Flow cytometry immunophenotyping of T-Lymphocytes CD8+ e CD4+ to identify populations that internalize DOX (high, int, low). CM: Central Memory, EM: Effector Memory.
# [1] = mouse, in vivo
smiles,measurement,setting,value
"COc1cccc2c1C(=O)c1c(O)c3c(c(O)c1C2=O)C[C@@](O)(C(=O)CO)C[C@@H]3O[C@H]1C[C@H](N)[C@H](O)[C@H](C)O1 [DOX, doxorubicin]",DOX uptake by lymphocyte sub-populations,patient-derived PBMC; FIG. 2,naïve T-cells (CD3+CD8+/CD4+CD45RO−) displayed the highest DOX uptake
same,DOX internalization in PBMC,patient-derived PBMC; PBMC isolated after chemotherapy (FIG. 1),promptly internalized DOX
same,proliferation in response to mitogenic stimulations,patient-derived PBMC; after versus before chemotherapy (FIG. 1),dramatic proliferative impairment
same,cardiomyocyte cross-section area,[1],increase in cardiomyocyte cross-section area
same,mitochondria area and cristae morphology,[1],alteration in mitochondria area and cristae morphology
same,mitochondria number in heart tissue,[1],increase in mitochondria number
same,mitochondrial membrane potential and amount of reduced glutathione,[1],induced alterations
